Measured values reported in US9187435B2, “Bridged Spiro[2.4]heptane ester derivatives” (Actelion Pharmaceuticals Ltd., priority 2010, dated 2015).

target: T1, human ALX receptor (Homo sapiens, UniProt P25090); test: Intracellular calcium measurements (FLIPR) in HEK293-hALXR-Gα16 cells, agonistic activity; assay type: cell-based; details: values normalized to WKYMVm 10 nM
T1 construct: expressed in transfected cells; host or cells: HEK293 (HEK293-hALXR-Gα16)
T1 sequence (P25090 1-351): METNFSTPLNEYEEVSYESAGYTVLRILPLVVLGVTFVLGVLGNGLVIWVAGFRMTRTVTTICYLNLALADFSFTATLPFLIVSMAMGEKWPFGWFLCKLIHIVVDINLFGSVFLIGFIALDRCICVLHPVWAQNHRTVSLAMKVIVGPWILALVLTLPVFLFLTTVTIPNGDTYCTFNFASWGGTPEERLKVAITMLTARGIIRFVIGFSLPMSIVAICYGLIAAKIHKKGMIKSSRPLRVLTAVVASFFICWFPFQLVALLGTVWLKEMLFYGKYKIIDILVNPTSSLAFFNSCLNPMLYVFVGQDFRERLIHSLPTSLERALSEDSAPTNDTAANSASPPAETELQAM
Description: The ALX receptor and FPRL2 agonistic activities of the compounds of formula (I) are determined in accordance with the following experimental method.
Intracellular Calcium Measurements:
Cells expressing recombinant human ALX receptor and the G-protein Gα16 (HEK293-hALXR-Gα16) were grown to 80% confluency in Growing Medium (GM). Cells were detached from culture dishes with a cell dissociation buffer (Invitrogen, 13151-014), and collected by centrifugation at 1,000 rpm at rt for 5 min in Assay Buffer (AB) (equal parts of Hank's BSS (Gibco, 14065-049) and DMEM without Phenol Red (Gibco, 11880-028)). After 60 min incubation at 37° C. under 5% CO2 in AB supplemented with 1 μM Fluo-4 (AM) (Invitrogen, F14202), and 20 mM HEPES (Gibco, 15630-056), the cells were washed and resuspended in AB. They were then seeded onto 384-well FLIPR assay plates (Greiner, 781091) at 50,000 cells in 70 μl per well and sedimented by centrifugation at 1,000 rpm for 1 min. Stock solutions of test compounds were made up at a concentration of 10 mM in DMSO, and serially diluted in AB to concentrations required for activation dose response curves. WKYMVm (Phoenix Peptides) was used as a reference agonist. FLIPR384 or FLIPR Tetra instruments (Molecular Devices) were operated according to the manufacturer's standard instructions, adding 4 μl of test compound dissolved at 10 mM in DMSO and diluted prior to the experiment in assay buffer to obtain the desired final concentration. Changes in fluorescence were monitored before and after the addition of test compounds at lex=488 nm and lem=540 nm. Emission peak values above base level after compounds addition were exported after base line subtraction. Values were normalized to high-level control (WKYMVm compound, 10 nM final concentration) after subtraction of the base line value (AB addition).

SMILES | EC50
O=C(OCC(O)CO)[C@H]1[C@H](C(=O)Nc2ccc(Br)nc2)[C@@H]2CC[C@H]1C21CC1 (relative stereo) [Example 5, (1S,2R,3R,4R)-[(S*)-2,3-Dihydroxypropyl 2-((6-bromopyridin-3-yl)carbamoyl)spiro[bicyclo[2.2.1]heptane-7,1′-cyclopropane]-3-carboxylate]] | 242 nM
O=C(OCC[C@H]1CCNC[C@H]1F)[C@H]1[C@H](C(=O)Nc2ccc(Br)nc2)[C@@H]2CC[C@H]1C21CC1 (relative stereo) [Example 38, (1S,2R,3R,4R)-[2-(cis-3-Fluoro-piperidin-4-yl)ethyl 2-((6-bromopyridin-3-yl)carbamoyl)spiro[bicyclo[2.2.1]heptane-7,1′-cyclopropane]-3-carboxylate]] | 1.8 nM
Cc1cc(CNC(=O)[C@H]2[C@H](C(=O)OCC[C@H]3CCNC[C@H]3F)[C@H]3CC[C@@H]2C32CC2)on1 (relative stereo) [Example 39, (1S,2R,3R,4R)-[2-(cis-3-Fluoro-piperidin-4-yl)ethyl 2-(((3-methylisoxazol-5-yl)methyl)carbamoyl)spiro[bicyclo[2.2.1]heptane-7,1′-cyclopropane]-3-carboxylate]] | 3.7 nM
Cc1cc(CNC(=O)[C@H]2[C@H](C(=O)O[C@@H]3CCNC[C@H]3F)[C@H]3CC[C@@H]2C32CC2)on1 (relative stereo) [Example 46, (1S,2R,3R,4R)-[(trans-3-Fluoro-piperidin-4-yl) 2-(((3-methylisoxazol-5-yl)methyl)carbamoyl)spiro[bicyclo[2.2.1]heptane-7,1′-cyclopropane]-3-carboxylate]] | 9.7 nM
O=C(O[C@@H]1CCNC[C@H]1F)[C@H]1[C@H](C(=O)Nc2ccc(Br)nc2)[C@@H]2CC[C@H]1C21CC1 (relative stereo) [Example 57, (1S,2R,3R,4R)-[(trans-3-Fluoro-piperidin-4-yl) 2-((6-bromopyridin-3-yl)carbamoyl)spiro[bicyclo[2.2.1]heptane-7,1′-cyclopropane]-3-carboxylate]] | 33.4 nM
O=C(Nc1ccc(Br)nc1)C1C(C(=O)OCC2CCNCC2)C2CCC1C21CC1 [Example 1, (1S,2R,3R,4R)-[Piperidin-4-ylmethyl 2-((6-bromopyridin-3-yl)carbamoyl)spiro[bicyclo[2.2.1]heptane-7,1′-cyclopropane]-3-carboxylate]] | 8.1 nM

The next lines start with the values.

EC50 | SMILES
77.5 nM | Cc1cc(CNC(=O)[C@H]2[C@H](C(=O)O[C@H]3CCNC[C@H]3F)[C@H]3CC[C@@H]2C32CC2)on1 (relative stereo) [Example 62, (1S,2R,3R,4R)-[cis-(3-Fluoro-piperidin-4-yl) 2-(((3-methylisoxazol-5-yl)methyl)carbamoyl)spiro[bicyclo[2.2.1]heptane-7,1′-cyclopropane]-3-carboxylate]]
106 nM | O=C(OC[C@H]1CCNC[C@H]1F)[C@H]1[C@H](C(=O)Nc2ccc(Br)nc2)[C@@H]2CC[C@H]1C21CC1 (relative stereo) [Example 64, (1S,2R,3R,4R)-[(cis-3-Fluoro-piperidin-4-yl)methyl 2-((6-bromopyridin-3-yl)carbamoyl)spiro[bicyclo[2.2.1]heptane-7,1′-cyclopropane]-3-carboxylate]]
157 nM | O=C(OC[C@@H]1CCNC[C@H]1F)[C@H]1[C@H](C(=O)Nc2ccc(Br)nc2)[C@@H]2CC[C@H]1C21CC1 (relative stereo) [Example 70, (1S,2R,3R,4R)-[(trans-3-Fluoro-piperidin-4-yl)methyl 2-((6-bromopyridin-3-yl)carbamoyl)spiro[bicyclo[2.2.1]heptane-7,1′-cyclopropane]-3-carboxylate]]
280 nM | O=C(O[C@H]1CCNC[C@H]1F)[C@H]1[C@H](C(=O)Nc2ccc(Br)nc2)[C@@H]2CC[C@H]1C21CC1 (relative stereo) [Example 74, (1S,2R,3R,4R)-[cis-3-Fluoro-piperidin-4-yl 2-((6-bromopyridin-3-yl)carbamoyl)spiro[bicyclo[2.2.1]heptane-7,1′-cyclopropane]-3-carboxylate]]
